Calls of active or inactive are those of the source. No rule for the calls is given here.
Test system: CCRIS mutagenicity, Ames/micronucleus/aberration tests
Assay: CCRIS mutagenicity studies
[1] = Test System: AMES SALMONELLA TYPHIMURIUM, Strain/Indicator: TA98, Metabolic Activation: NONE, Method: STANDARD PLATE
[2] = Test System: AMES SALMONELLA TYPHIMURIUM, Strain/Indicator: TA100, Metabolic Activation: NONE, Method: PREINCUBATION
[3] = Test System: AMES SALMONELLA TYPHIMURIUM, Strain/Indicator: TA100, Metabolic Activation: NONE, Method: STANDARD PLATE
[4] = Test System: AMES SALMONELLA TYPHIMURIUM, Strain/Indicator: TA100, Metabolic Activation: RAT, LIVER, S-9, AROCLOR 1254, Method: STANDARD PLATE

## O=C1C=CC(=O)C=C1
Test System: AMES SALMONELLA TYPHIMURIUM, Strain/Indicator: TA97, Metabolic Activation: NONE, Method: STANDARD PLATE
  mutagenic call: inactive; negative
Test System: AMES SALMONELLA TYPHIMURIUM, Strain/Indicator: TA97, Metabolic Activation: RAT, LIVER, S-9, AROCLOR 1254, Method: PREINCUBATION
  mutagenic call: inactive; negative
Test System: AMES SALMONELLA TYPHIMURIUM, Strain/Indicator: TA97, Metabolic Activation: RAT, LIVER, S-9, PCB, Method: STANDARD PLATE
  mutagenic call: inactive; negative
Test System: AMES SALMONELLA TYPHIMURIUM, Strain/Indicator: TA97, Metabolic Activation: RAT, LIVER, S-9, PHENOBARBITAL, Method: PREINCUBATION
  mutagenic call: inactive; negative
[1]
  mutagenic call: inactive; negative
Test System: AMES SALMONELLA TYPHIMURIUM, Strain/Indicator: TA98, Metabolic Activation: RAT, LIVER, S-9, AROCLOR 1254, Method: PREINCUBATION
  mutagenic call: inactive; negative
Test System: AMES SALMONELLA TYPHIMURIUM, Strain/Indicator: TA98, Metabolic Activation: RAT, LIVER, S-9, PCB, Method: STANDARD PLATE
  mutagenic call: inactive; negative
Test System: AMES SALMONELLA TYPHIMURIUM, Strain/Indicator: TA98, Metabolic Activation: RAT, LIVER, S-9, PHENOBARBITAL AND 5,6-BENZOFLAVONE, Method: PREINCUBATION
  mutagenic call: inactive; negative
Test System: AMES SALMONELLA TYPHIMURIUM, Strain/Indicator: TA98, Metabolic Activation: RAT, LIVER, S-9, PHENOBARBITAL, Method: PREINCUBATION
  mutagenic call: active; positive
Test System: AMES SALMONELLA TYPHIMURIUM, Strain/Indicator: TA100, Metabolic Activation: NONE, Method: FLUCTUATION TEST
  mutagenic call: inactive; negative
[2]
  mutagenic call: inactive; negative
[3]
  mutagenic call: inactive; negative
Test System: AMES SALMONELLA TYPHIMURIUM, Strain/Indicator: TA100, Metabolic Activation: RAT, LIVER, S-9, AROCLOR 1254, Method: PREINCUBATION
  mutagenic call: inactive; negative
Test System: AMES SALMONELLA TYPHIMURIUM, Strain/Indicator: TA100, Metabolic Activation: RAT, LIVER, S-9, PCB, Method: FLUCTUATION TEST
  mutagenic call: active; positive
Test System: AMES SALMONELLA TYPHIMURIUM, Strain/Indicator: TA100, Metabolic Activation: RAT, LIVER, S-9, PCB, Method: STANDARD PLATE
  mutagenic call: inactive; negative
Test System: AMES SALMONELLA TYPHIMURIUM, Strain/Indicator: TA100, Metabolic Activation: RAT, LIVER, S-9, PHENOBARBITAL, Method: PREINCUBATION
  mutagenic call: active; positive
Test System: AMES SALMONELLA TYPHIMURIUM, Strain/Indicator: TA102, Metabolic Activation: NONE, Method: PREINCUBATION
  mutagenic call: inactive; negative
Test System: AMES SALMONELLA TYPHIMURIUM, Strain/Indicator: TA102, Metabolic Activation: RAT, LIVER, S-9, AROCLOR 1254, Method: PREINCUBATION
  mutagenic call: inactive; negative
Test System: AMES SALMONELLA TYPHIMURIUM, Strain/Indicator: TA102, Metabolic Activation: RAT, LIVER, S-9, PHENOBARBITAL AND 5,6-BENZOFLAVONE, Method: PREINCUBATION
  mutagenic call: inactive; negative
Test System: AMES SALMONELLA TYPHIMURIUM, Strain/Indicator: TA104, Metabolic Activation: RAT, LIVER, S-9, AROCLOR 1254, Method: PREINCUBATION
  mutagenic call: inactive; negative
Test System: AMES SALMONELLA TYPHIMURIUM, Strain/Indicator: TA104, Metabolic Activation: RAT, LIVER, S-9, PHENOBARBITAL AND 5,6-BENZOFLAVONE, Method: PREINCUBATION
  mutagenic call: inactive; negative
Test System: AMES SALMONELLA TYPHIMURIUM, Strain/Indicator: TA1535, Metabolic Activation: NONE, Method: PREINCUBATION
  mutagenic call: inactive; negative
Test System: AMES SALMONELLA TYPHIMURIUM, Strain/Indicator: TA1535, Metabolic Activation: RAT, LIVER, S-9, AROCLOR 1254, Method: PREINCUBATION
  mutagenic call: inactive; negative
Test System: AMES SALMONELLA TYPHIMURIUM, Strain/Indicator: TA2637, Metabolic Activation: NONE, Method: PREINCUBATION
  mutagenic call: inactive; negative
Test System: AMES SALMONELLA TYPHIMURIUM, Strain/Indicator: TA2637, Metabolic Activation: RAT, LIVER, S-9, PHENOBARBITAL AND 5,6-BENZOFLAVONE, Method: PREINCUBATION
  mutagenic call: inactive; negative
Test System: CHINESE HAMSTER V-79, Strain/Indicator: V-79/6-THIOGUANINE, Metabolic Activation: NONE
  mutagenic call: active; positive
Test System: MOUSE LYMPHOMA, Strain/Indicator: L5178Y (TK+/TK-), Metabolic Activation: NONE, Method: SUSPENSION/PLATE
  mutagenic call: active; positive

## c1cc2c3c(c1)ccc1cccc(c13)C2
Test System: AMES SALMONELLA TYPHIMURIUM, Strain/Indicator: TA98, Metabolic Activation: HAMSTER, LIVER, S-9, AROCLOR 1254 (30%), Method: PREINCUBATION
  mutagenic call: active; positive
Test System: AMES SALMONELLA TYPHIMURIUM, Strain/Indicator: TA98, Metabolic Activation: NONE, Method: PREINCUBATION
  mutagenic call: inactive; negative
Test System: AMES SALMONELLA TYPHIMURIUM, Strain/Indicator: TA98, Metabolic Activation: RAT, LIVER, S-9, AROCLOR 1254 (30%), Method: PREINCUBATION
  mutagenic call: inactive; negative
Test System: AMES SALMONELLA TYPHIMURIUM, Strain/Indicator: TA100, Metabolic Activation: HAMSTER, LIVER, S-9, AROCLOR 1254 (30%), Method: PREINCUBATION
  mutagenic call: active; positive
[2]
  mutagenic call: inactive; negative
Test System: AMES SALMONELLA TYPHIMURIUM, Strain/Indicator: TA100, Metabolic Activation: RAT, LIVER, S-9, AROCLOR 1254 (30%), Method: PREINCUBATION
  mutagenic call: active; positive
[4]
  mutagenic call: inactive; negative

## CC(C)=CC1C(C(=O)OCN2C(=O)C3=C(CCCC3)C2=O)C1(C)C (stereo unspecified)
Test System: AMES SALMONELLA TYPHIMURIUM, Strain/Indicator: TA98
  mutagenic call: active; positive
Test System: AMES SALMONELLA TYPHIMURIUM, Strain/Indicator: TA98, Metabolic Activation: NONE
  mutagenic call: active; positive
Test System: AMES SALMONELLA TYPHIMURIUM, Strain/Indicator: TA98, Metabolic Activation: NONE, Method: MICROSUSPENSION
  mutagenic call: inactive; negative
Test System: AMES SALMONELLA TYPHIMURIUM, Strain/Indicator: TA98, Metabolic Activation: S-9, Method: MICROSUSPENSION
  mutagenic call: inactive; negative
Test System: AMES SALMONELLA TYPHIMURIUM, Strain/Indicator: TA100
  mutagenic call: active; positive
Test System: AMES SALMONELLA TYPHIMURIUM, Strain/Indicator: TA100, Metabolic Activation: NONE
  mutagenic call: inactive; negative
Test System: AMES SALMONELLA TYPHIMURIUM, Strain/Indicator: TA100, Metabolic Activation: NONE, Method: MICROSUSPENSION
  mutagenic call: inactive; negative
Test System: AMES SALMONELLA TYPHIMURIUM, Strain/Indicator: TA100, Metabolic Activation: S-9, Method: MICROSUSPENSION
  mutagenic call: inactive; negative

## Cc1cc2c(cc1C)-c1cc3ccccc3c3cccc-2c13
Test System: AMES SALMONELLA TYPHIMURIUM, Strain/Indicator: TA100, Metabolic Activation: RAT, LIVER, S-9, AROCLOR 1254
  mutagenic call: active; positive

## O=C(OCc1ccc(Cl)cc1)c1cccc2cccnc12
[1]
  mutagenic call: inactive; negative
Test System: AMES SALMONELLA TYPHIMURIUM, Strain/Indicator: TA98, Metabolic Activation: RAT, LIVER, S-9, AROCLOR 1254, Method: STANDARD PLATE
  mutagenic call: inactive; negative
[3]
  mutagenic call: inactive; negative
[4]
  mutagenic call: inactive; negative
Test System: AMES SALMONELLA TYPHIMURIUM, Strain/Indicator: TA1535, Metabolic Activation: NONE, Method: STANDARD PLATE
  mutagenic call: inactive; negative
Test System: AMES SALMONELLA TYPHIMURIUM, Strain/Indicator: TA1535, Metabolic Activation: RAT, LIVER, S-9, AROCLOR 1254, Method: STANDARD PLATE
  mutagenic call: inactive; negative
Test System: AMES SALMONELLA TYPHIMURIUM, Strain/Indicator: TA1537, Metabolic Activation: NONE, Method: STANDARD PLATE
  mutagenic call: inactive; negative
Test System: AMES SALMONELLA TYPHIMURIUM, Strain/Indicator: TA1537, Metabolic Activation: RAT, LIVER, S-9, AROCLOR 1254, Method: STANDARD PLATE
  mutagenic call: inactive; negative

## Nc1ccc(-c2ccc(-c3ccc(N)cc3)cc2)cc1
Test System: AMES SALMONELLA TYPHIMURIUM, Strain/Indicator: TA1538, Metabolic Activation: NONE, Method: STANDARD PLATE
  mutagenic call: active; positive
Test System: AMES SALMONELLA TYPHIMURIUM, Strain/Indicator: TA1538, Metabolic Activation: RAT, LIVER, S-9, AROCLOR 1254, Method: STANDARD PLATE
  mutagenic call: active; positive
Test System: CHINESE HAMSTER V-79, Strain/Indicator: V-79/6-THIOGUANINE, Metabolic Activation: NONE, Method: SUSPENSION/PLATE
  mutagenic call: active; positive
Test System: CHINESE HAMSTER V-79, Strain/Indicator: V-79/6-THIOGUANINE, Metabolic Activation: RAT, LIVER, S-9, AROCLOR 1254, Method: SUSPENSION/PLATE
  mutagenic call: inactive; negative
Test System: CHINESE HAMSTER V-79, Strain/Indicator: V-79/6-THIOGUANINE, Metabolic Activation: RAT, LIVER, S-9, PHENOBARBITAL AND BETA-NAPHTHOFLAVONE, Method: SUSPENSION/PLATE
  mutagenic call: inactive; negative

— PubChem BioAssay AID1259407 (Chemical Carcinogenesis Research Information System (CCRIS), 2018)
